Results taken from US9968616B2, “Discovery of FDA-approved drugs as inhibitors of fatty acid binding protein 4 using molecular docking screening” (The Chinese University of Hong Kong, priority 2014, dated 2018).

Columns and labels:
[1] = test system: 3T3-L1 cells; conditions: 10 μM, reference 31; cited from earlier work
[2] = test system: 3T3-L1 cells; assay: Cell viability (MTT assay); type: cell-based, Mouse; conditions: 10 μM, regardless of the isoproterenol treatment, FIG. 3C
[3] = test system: 3T3-L1 cells; assay: Adipolysis assay (glycerol release) in 3T3-L1 cells; type: cell-based, Mouse; conditions: 10 μM, FIG. 3B; for isoproterenol-stimulated adipolysis: isoproterenol 100 nM for 24 hours
Protocol: Mouse 3T3-L1 pre-adipocytes were cultured in Dulbecco's Modified Eagle's Medium (DMEM) supplemented with 10% fetal bovine serum, 100 units/ml penicillin and 100 μg/ml streptomycin at 37° C. in a humidified 95% air and 5% CO2 atmosphere. All cell culture reagents were purchased from Invitrogen (Carlsbad, Calif., USA). To initiate 3T3-L1 adipocyte differentiations, the standard differentiation cocktail (250 nM dexamethasone, 100 mM 3-isobutyl-1-methylxanthine and 175 nM human insulin, all purchased from Sigma, St. Louis, Mo.) was added to the medium after 2 days post-confluence. After 2 days, the medium was replaced with fresh complete medium containing insulin. Culture medium was changed every 2 days. Levofloxacin or benzbromarone (BBR) (Sigma, St. Louis, Mo.) was dissolved in DMSO and added to the medium at the beginning of pre-adipocyte differentiations. […] Confluent 3T3-L1 pre-adipocytes (day 0) were stimulated by the differentiation cocktail and cultured for 2 days with culture medium (Control), 10 μM of levofloxacin (Levofloxacin) or 10 μM benzbromarone (BBR). At day 2, the culture medium was collected and the extent of adipolysis was evaluated using Adipolysis Assay Kit (Cayman Chemical: 10009381, MI, US). During adipolysis, triglycerides are hydrolysed to release free fatty acids and glycerol. The amount of glycerol released into the medium as measured by the kit is proportional to the degree of adipolysis. Basal adipolysis and isoproterenol-induced adipolysis were studied. Isoproterenol was included as a positive control for screening pharmaceuticals that are known to regulate the adipolysis. Cells were treated with 100 nM of isoproterenol for 24 hours after the treatment with culture medium, levofloxacin or benzbromarone. Results were repeated at least three times from three independent experiments and presented as mean±SD, n=3 (FIG. 3B). The results were statistically analyzed by one-way ANOVA test. *, P<0.05; compared with the control group. #, P<0.05; compared with the isoproterenol-treated group.

[4] = test system: 3T3-L1 cells; assay: Oil Red O staining (induction of adipogenesis); type: cell-based, Mouse; conditions: 10 μM, days 0-6 of differentiation, versus control group, FIG. 3D
[5] = target: human FABP4 (Homo sapiens, UniProt P15090); assay: FABP4 Inhibitor/Ligand Screening Assay Kit, cell-free ligand displacement fluorescence-labeled probe assay; type: binding; conditions: for inhibition at 10 µM: read-out: % FABP4 inhibition (10 μM)
human FABP4, sequence (P15090 whole entry): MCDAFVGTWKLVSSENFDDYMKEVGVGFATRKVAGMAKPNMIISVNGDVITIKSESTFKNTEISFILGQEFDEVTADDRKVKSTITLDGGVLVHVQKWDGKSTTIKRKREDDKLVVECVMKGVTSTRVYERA

[6] = test system: PPARγ; assay: Western blot detection of PPARγ protein level in 3T3-L1 cells; type: cell-based, Mouse; conditions: 10 μM, Day 6, cell lysate, FIG. 3E
Protocol: Mouse 3T3-L1 pre-adipocytes were cultured in Dulbecco's Modified Eagle's Medium (DMEM) supplemented with 10% fetal bovine serum, 100 units/ml penicillin and 100 μg/ml streptomycin at 37° C. in a humidified 95% air and 5% CO2 atmosphere. All cell culture reagents were purchased from Invitrogen (Carlsbad, Calif., USA). To initiate 3T3-L1 adipocyte differentiations, the standard differentiation cocktail (250 nM dexamethasone, 100 mM 3-isobutyl-1-methylxanthine and 175 nM human insulin, all purchased from Sigma, St. Louis, Mo.) was added to the medium after 2 days post-confluence. After 2 days, the medium was replaced with fresh complete medium containing insulin. Culture medium was changed every 2 days. Levofloxacin or benzbromarone (BBR) (Sigma, St. Louis, Mo.) was dissolved in DMSO and added to the medium at the beginning of pre-adipocyte differentiations.
As in the above Oil Red O Staining assay, cells were harvested on Day 6 and the total protein was collected for western blotting to estimate the PPARγ protein level in the treated 3T3-L1 cells. […] Specific bands were detected using […] (BCIP) and nitro blue tetrazolium (NBT) system (Bio-Rad, Hercules, Calif.) and photographed (FIG. 3E). […]

Row | Structure (SMILES) | proliferation/viability of 3T3-L1 cells (cytotoxicity) [2] | basal adipolysis [3] | isoproterenol-stimulated adipolysis [3] | inhibition at 10 µM [5] [%] | other results
1 | CCc1oc2ccccc2c1C(=O)c1cc(Br)c(O)c(Br)c1 [BBR, benzbromarone] | not affected | inhibitory effects were also observed | inhibitory effects were also observed |  | adipolysis (literature report) [1]: inhibits the adipolysis
2 | C[C@H]1COc2c(N3CCN(C)CC3)c(F)cc3c(=O)c(C(=O)O)cn1c23 [Levofloxacin, (S)-9-fluoro-2,3-dihydro-3-methyl-10-(4-methylpiperazin-1-yl)-7-oxo-7H-pyrido[1,2,3-de]-1,4-benzoxazine-6-carboxylic acid] | not affected | inhibited | inhibited | 70 ± 12.2 | lipid accumulation (red dots, Oil Red O) [4]: did not promote lipid accumulation; IC50 ([5]; dose-response, Prism 5, read-out: IC50 FABP4 activity inhibition): 5.83 µM; protein expression of PPARγ [6]: did not increase
3 | Cc1nc2n(c(=O)c1CCN1CCC(c3noc4cc(F)ccc34)CC1)CCCC2O (stereo not drawn) [Paliperidone] |  |  |  | 5.12 ± 6.9 | 
4 | O=c1[nH]c2ccccc2n1C1CCN(CCCC(c2ccc(F)cc2)c2ccc(F)cc2)CC1 [Pimozide] |  |  |  | 47 ± 11.3 | 
5 | Cc1nc2n(c(=O)c1CCN1CCC(c3noc4cc(F)ccc34)CC1)CCCC2 [Risperidone] |  |  |  | 1.64 ± 12.9 | 
6 | N[C@@H]1[C@H]2CN(c3nc4c(cc3F)c(=O)c(C(=O)O)cn4-c3ccc(F)cc3F)C[C@@H]12 [Trovafloxacin] |  |  |  | 57.5 ± 12.2 | 
